Experimental data as given in patent US8992891B2, “Therapeutic approaches for treating CMT and related disorders” (Pharnext, priority 2007, dated 2015).

Assays:
[1] = tested on: hemizygous PMP22 transgenic rat (CMT rat); assay: Electrophysiological evaluation in CMT transgenic rats; format: in vivo; details: versus TG placebo group; for potential amplitude measured on the distal portion of the tail: CMT rats treated during 20 weeks
Excerpt: When appropriate, the rats are subjected to electrophysiological evaluation and histological measurement.

[2] = tested on: PMP22 protein; assay: PMP22 protein expression analysis by flow cytometry (FACS) in Schwann cells; format: cell-based, rat; parameters: key to Protein (PMP22 expression decrease): +: significantly decreases PMP22 levels compared to control; details: for Protein (PMP22 expression decrease): rat primary Schwann cells, FACS, 24 hrs
Description: One day later, Schwann cells are stimulated by combinations of drugs or drugs alone during 24 hrs (3 wells/condition). The preparation of each compound is performed just prior to its addition to the cell culture medium. Drugs are added to a defined medium composed of DMEM-F12, with 1% Insulin-Transferrin-Selenium-X (ITS, Invitrogen #51300), 16 μg/ml of Putrescine, 0.02 μg/ml of corticosterone, 10 nM Progesterone and 50 μg/ml of gentamicin. The absence of Forskolin during drug stimulation avoids adenylate cyclase saturation. 8 hrs, 24 hrs and 48 hrs after drugs incubation, supernatants are recovered, centrifuged and frozen. SC are detached with trypsin-EDTA. As soon as the majority of cells are in suspension, the trypsin is neutralised using DMEM with 10% FCS. Supernatants with cells are recovered and centrifuged. The pellets of cells are transferred in micro tubes, washed in PBS once and fixed with a specific solution (AbCys #Reagent A BUF09B). 10 minutes later, cells are rinsed once with PBS and kept at 4° C. Five days after cell fixation, all cell preparations with different incubation times are labelled using the following protocol. […] Cells are then centrifuged at 7000 rpm for 5 minutes and cell pellets are rinsed once in PBS. A secondary antibody is added, coupled to Alexa Fluor 488 (goat anti-rabbit IgG, Molecular Probes #A11008, 1/100), for one hour at room temperature. Cells are then centrifuged at 7000 rpm for 5 minutes and cell pellets are rinsed once in PBS. The labelling is increased adding a tertiary antibody coupled to Alexa Fluor 488 (chicken anti-goat IgG, Molecular Probes #A21467, 1/100) for one hour incubation, at room temperature. Cells are then rinsed once in PBS. Control without any antibody (unlabelled cells) is performed to determine the level of autofluorescence and adapted the sensitivity of the photomultiplicators. Control with both secondary and tertiary antibodies but without primary antibody, is performed to assess non specific binding of antibodies. Data acquisition and analysis are performed with a FACS Array cytometer and FACS Array software (Becton Dickinson) on 5000 cells. Forward Scatter (FSC) correlated with cell volume (size) and Side Scatter (SSC) depending on inner complexity of cells (granularity) are analysed. For expression of PMP22, analysis is performed within the total cells and percent of positive cells is calculated. Positive cells are cells with fluorescence intensity higher than the control with secondary antibody. We tested the ability of some drugs to inhibit PMP22 protein expression (FACS analysis). […] The results of the action of some individual drugs on the protein level of PMP22 are also shown on table 1 above.

[3] = tested on: hemizygous PMP22 transgenic rat (CMT rat); assay: Bar test in CMT transgenic rat model; format: in vivo; details: CMT rats; for bar test performance compared with the placebo group: 16 weeks of treatment; for improvement of bar test motor performances versus placebo: after 8 weeks of the force-feeding; for bar test performances throughout the treatment procedure: chronic treatment
Excerpt: Four weeks-old rats transgenic PMP22 rats have been used throughout of the study. Aspects of the study design (randomization, statistics for multiple comparisons, sample size etc.) have been checked to be in line with the recommendations provided in 4th issue of 43rd volume of ILAR Journal (2002), that provides reviews in the field of experimental design and statistics in biomedical research.
The experimental groups are formed with young rats of both genders separately. The rats are assigned to the groups following randomization schedule based on the body weight. In some experiments the randomization is based on the performances of the rats in the bar test.
Both genders are represented by separate control groups that are numerically equal or bigger than the treatment groups.
The animals are weighted twice a week in order to adjust the doses to growing body weight. If the osmotic pump is chosen for the treatment administration, the doses of the drug are calculated on the basis of the estimated mean body weight of the animals expected for their age over the period of the pump duration (6 weeks). The pumps are re-implanted if necessary, with the appropriated aesthesia protocol.
Each three or four weeks the animals are subjected to a behavioural test. Each test is conducted be the same investigator in the same room and at the same time of the day; this homogeneity is maintained throughout entire experiment. All treatments are blinded for the investigator. “Bar test” and “Grip strength” has been mainly used to access the performance throughout study. The schedule of the bar test may change as the animal growth (in order to avoid the bias due to the learning, for example).
The Bar Test evaluates rats' ability to hold on a fix rod. […] The rat is placed on its four paws on the middle of the rod (diameter: 2.5 cm; length: 50 cm; 30 cm above the table). Trials are performed consecutively; the number and the duration of trials in our experiments have been depending on batches of the animals. This variability in the testing have been introduced in order to determine the schedule appropriated to the best detection of the motor deficiency in the CMT rats in the course of the experiments.
Performance indices are recorded on each session: • The number of trials needed to hold for 60 sec (or 30 sec for batch 1, session 1 and 2) on the rod. • The time spent on the bar (i.e. the fall latency) in each trial and the average on the session. In the experimental procedures where the session ends after the rat has stayed for a cut-off time, i.e. 30 or 60 s, on the bar, a performance of the cut-off time (30 s or 60 s) is assigned to trials not completed (eg: for batch 8, for an animal which stays on the bar less than 10 sec on trials 1, 2 and 3, then for 60 sec on trials 4 and 5, 60 s is assigned to trials 6 to 10). • The number of falls.

Compound: Cn1cc[nH]c1=S [Methimazole]
- potential amplitude measured on the distal portion of the tail [1]: significantly improved
- nerve conduction velocity (NCV) ([1]; CMT rats): not significantly affected
- Protein (PMP22 expression decrease) [2]: +
- first dose shown to be active, as fraction of the dose equivalent to dosage used in human for the canonical indications [3]: one fourth
- bar test performance compared with the placebo group [3]: significantly more performing
- improvement of bar test motor performances versus placebo [3]: statistically significant
- bar test performances throughout the treatment procedure [3]: improved bar test performances

Compound: CC[C@@H]1C(=O)OC[C@@H]1Cc1cncn1C [Pilocarpine]
- potential amplitude measured on the distal portion of the tail [1]: failed to reach statistical significance
- PMP22 protein expression, in words ([2]; Schwann cells in vitro, 24 hrs of incubation, compared to untreated controls): decreases expression of the PMP22 protein
- Protein (PMP22 expression decrease) [2]: +
- first dose shown to be active, as fraction of the dose equivalent to dosage used in human for the canonical indications [3]: one half
- bar test performance compared with the placebo group [3]: significantly more performing
- improvement of bar test motor performances versus placebo [3]: statistically significant
- bar test performances throughout the treatment procedure [3]: improved bar test performances
